Source: ChEMBL document CHEMBL5352391, “New structural classes of antimalarials” (Eur J Med Chem, 2022)
≈ marks a conversion by molar mass, not a printed value.

What was measured:
Plasmodium falciparum [1] = experiment: Antiplasmodial activity against chloroquine sensitive Plasmodium falciparum GC03 infected in human erythrocyte assessed as inhibition of parasite growth incubated for 48 hrs by SYBR Green dye based fluorescence assay; format: functional, organism-based
Plasmodium falciparum [2] = experiment: Antiplasmodial activity against Plasmodium falciparum K1 infected in human erythrocyte assessed as inhibition of parasite growth incubated for 72 hrs by [3H]-hypoxanthine incorporation based liquid scintillation counting method; format: functional, organism-based
[3] = Retention time of the compound by HPLC-MS analysis; format: physicochemical
Plasmodium falciparum [4] = experiment: Antiplasmodial activity against chloroquine resistant Plasmodium falciparum RKL9 infected in human erythrocyte assessed as inhibition of parasite growth incubated for 24 hrs by three fold serial dilution assay; format: functional
Plasmodium berghei = experiment: Antimalarial activity against Plasmodium berghei ANKA infected in Swiss albino mouse assessed as reduction in parasitemia at 50 micromol/kg,po administrated for 4 days by Giemsa staining based microscopic analysis; format: functional; design: scale not given: the % may be the effect or the level left; details: dose 50 µmol/kg, time 4 day
Plasmodium falciparum [5] = experiment: Antiplasmodial activity against chloroquine sensitive Plasmodium falciparum 3D7 assessed as inhibition of parasite growth incubated for 48 hrs by Malstat reagent based spectrophotometric; format: functional, organism-based; details: 3D7, 48 h
Plasmodium falciparum [6] = experiment: Antimalarial activity against Plasmodium falciparum 3D7 assessed as reduction of parasite growth at 25 uM incubated for 96 hrs by SYBR green I dye based fluorescence assay relative to control; format: functional; design: scale not given: the % may be the effect or the level left
Plasmodium falciparum [7] = experiment: Antiplasmodial activity against chloroquine resistant Plasmodium falciparum K14 assessed as inhibition of parasite growth incubated for 48 hrs by [3H]-hypoxanthine incorporation based microbeta scintillation counting method; format: functional, organism-based
Plasmodium falciparum [8] = experiment: Antiplasmodial activity against chloroquine resistant Plasmodium falciparum RKL-2 assessed as inhibition of parasite growth incubated for 36 to 40 hrs by Giemsa staining based microscopic analysis; format: functional, organism-based
Plasmodium falciparum [9] = experiment: Antiplasmodial activity against chloroquine resistant Plasmodium falciparum K14 assessed as inhibition of parasite growth incubated for 42 hrs by [3H]-hypoxanthine incorporation based microbeta scintillation counting method; format: functional, organism-based
Plasmodium falciparum [10] = experiment: Antimalarial activity against Plasmodium falciparum 3D7 assessed as inhibition of parasite growth by measuring minimum inhibitory concentration by microassay; format: functional
Plasmodium falciparum [11] = experiment: Antimalarial activity against Plasmodium falciparum 3D7 assessed as reduction of parasite growth incubated for 96 hrs by SYBR green I dye based fluorescence assay; format: functional, organism-based; details: 3D7, 96 h
[12] = Selectivity index, ratio of CC50 for cytotoxicity against human HepG2 cells by MTT assay to EC50 for antiplasmodial activity against erythrocytic stage of Plasmodium falciparum K1 by [3H]-hypoxanthine incorporation based liquid scintillation counting method; format: toxicity, cell-based; details: read-out: Ratio CC50/EC50
[13] = Selectivity index, ratio of CC50 for cytotoxicity against human HepG2 cells by MTT assay to EC50 for antiplasmodial activity against erythrocytic stage of Plasmodium falciparum NF54 by [3H]-hypoxanthine incorporation based liquid scintillation counting method; format: toxicity, cell-based; details: read-out: Ratio CC50/EC50
Plasmodium falciparum [14] = experiment: Antiplasmodial activity against erythrocytic stage of Plasmodium falciparum 3D7 assessed as reduction of parasite growth incubated for 100 hrs by SYBR Green dye based fluorescence assay; format: functional, organism-based; details: 3D7, 100 h
Plasmodium falciparum [15] = experiment: Antiplasmodial activity against erythrocytic stage of Plasmodium falciparum K1 assessed as reduction of parasite growth incubated for 48 hrs by [3H]-hypoxanthine incorporation based beta-plate liquid scintillation counting method; format: functional, organism-based
Plasmodium falciparum [16] = experiment: Antiplasmodial activity against erythrocytic stage of Plasmodium falciparum NF54 assessed as reduction of parasite growth incubated for 48 hrs by [3H]-hypoxanthine incorporation based beta-plate liquid scintillation counting method; format: functional, organism-based
[17] = Cytotoxicity against human HepG2 cells assessed as reduction in cell viability incubated for 72 hrs by MTT assay; format: toxicity, cell-based
Falcipain 2 = molecular target: T1, Falcipain 2 (Plasmodium falciparum, UniProt Q9N6S8); experiment: Inhibition of Plasmodium falciparum recombinant His-tagged falcipain-2 expressed in Escherichia coli assessed as inhibition constant using Cbz-Phe-Arg-AMC as substrate by fluorescence spectrophotometer assay
T1 sequence (Q9N6S8 whole entry): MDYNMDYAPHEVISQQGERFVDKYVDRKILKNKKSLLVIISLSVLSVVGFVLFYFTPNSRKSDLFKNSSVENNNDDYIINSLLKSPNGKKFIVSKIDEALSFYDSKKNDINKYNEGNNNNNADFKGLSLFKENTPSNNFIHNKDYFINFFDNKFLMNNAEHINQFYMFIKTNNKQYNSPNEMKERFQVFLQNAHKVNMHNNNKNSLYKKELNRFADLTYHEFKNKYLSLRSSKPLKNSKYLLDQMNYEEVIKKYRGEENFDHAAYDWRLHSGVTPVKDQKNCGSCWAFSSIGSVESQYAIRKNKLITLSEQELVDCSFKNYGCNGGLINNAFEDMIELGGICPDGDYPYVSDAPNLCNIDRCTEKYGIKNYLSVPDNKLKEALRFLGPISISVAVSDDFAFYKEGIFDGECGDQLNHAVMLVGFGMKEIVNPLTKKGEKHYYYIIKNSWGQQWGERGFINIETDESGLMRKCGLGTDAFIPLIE

Plasmodium falciparum [18] = experiment: Antimalarial activity against chloroquine resistant Plasmodium falciparum assessed as inhibition of parasite growth; format: functional, organism-based
Plasmodium falciparum [19] = experiment: Antiplasmodial activity against Plasmodium falciparum 3D7 assessed as inhibition of parasite growth incubated for 72 hrs by LDH assay based spectrofluorometric analysis; format: functional, organism-based; details: 3D7, 72 h
[20] = Selectivity index, ratio of CC50 for cytotoxicity against human HepG2 cells by MTT assay to EC50 for antiplasmodial activity against erythrocytic stage of Plasmodium falciparum 3D7 by SYBR Green dye based fluorescence assay; format: toxicity, cell-based; details: read-out: Ratio CC50/EC50

N=C(N)c1ccc(-c2cn(-c3ccc(C(=N)N)cc3)nn2)cc1
IC50 (Plasmodium falciparum [1]): 0.087 µM

N=C(N)c1ccc(-n2cc(-c3cccc(C(=N)N)c3)nn2)cc1
IC50 (Plasmodium falciparum [1]): 0.44 µM

N=C(N)c1ccc(-c2cn(-c3cccc(C(=N)N)c3)nn2)cc1
IC50 (Plasmodium falciparum [1]): 0.276 µM

C=C(C)[C@H](O)[C@@H](O)C[C@@H](C)C1=C2C[C@H](O)[C@H]3[C@@]4(C)CCC(=O)C(C)(C)[C@@H]4CC[C@]3(C)[C@@]2(C)CC1
IC50 (Plasmodium falciparum [2]): 6.98 µM
Retention_time [3]: 23 min

O=C(N/N=C/C=C/c1ccccc1)c1ccncc1
inhibition (INH) (Plasmodium falciparum [4]): 80%

O=C(N/N=C/c1ccc(O)cc1)c1ccncc1
inhibition (INH) (Plasmodium falciparum [4]): 90%

COc1ccc(/C=N/NC(=O)c2ccncc2)cc1O
inhibition (INH) (Plasmodium falciparum [4]): 91%

Cc1ccc(-n2cc(C=O)c(-c3ccccc3)n2)cc1
Activity (Plasmodium berghei): 85%

Cc1ccc(-n2cc(C(=O)O)c(-c3ccccc3)n2)cc1
Activity (Plasmodium berghei): 95%

O=Cc1cn(-c2ccc(Cl)cc2)nc1-c1ccccc1
Activity (Plasmodium berghei): 83%

CC(=O)Nc1cc(/C=C/c2ccc(F)cc2)cc2cc(-c3ccc(F)cc3)[nH]c12
IC50 (Plasmodium falciparum [5]): 2.14 µM

COC(=O)[C@H](Cc1ccc(O)c(-c2ccc3ccccc3c2)c1)NC(=O)C(=O)c1c[nH]c2ccccc12
Activity (Plasmodium falciparum [6]): 60%

COc1ccc(N2C(=O)[C@@H](Oc3ccc(Cl)cc3Cl)[C@H]2c2ccc(NC(=O)N3CCOCC3)cc2)cc1
IC50 (Plasmodium falciparum [7]): 21 µM

CCN(Cc1cc(C2(C)OOC(c3ccncc3)OO2)ccc1O)c1ccccc1 (centres undefined)
IC50 (Plasmodium falciparum [8]): 5.3 µg/mL (≈ 13 µM)

COC(=O)[C@H](Cc1ccc(O)c(-c2ccc(C(F)(F)F)cc2)c1)NC(=O)C(=O)c1c[nH]c2ccccc12
Activity (Plasmodium falciparum [6]): 60%

COC(=O)[C@H](Cc1ccc(O)c(I)c1)NC(=O)C(=O)c1c[nH]c2ccccc12
Activity (Plasmodium falciparum [6]): 20%

CCN(Cc1cc(C2(C)OOC(c3ccccc3)OO2)ccc1O)c1ccccc1 (centres undefined)
IC50 (Plasmodium falciparum [8]): 5.3 µg/mL (≈ 13 µM)

CCN(Cc1cc(C2(C)OOC(c3cccs3)OO2)ccc1O)c1ccccc1 (centres undefined)
IC50 (Plasmodium falciparum [8]): 5.3 µg/mL (≈ 12.8 µM)

CCN(CC)c1ccc(/N=C/c2cccc(CN3CCOCC3)c2O)cc1
IC50 (Plasmodium falciparum [9]): 2.28 µM

Cc1ccc(C2=C/C(=C/c3cc4cc(C)ccc4nc3Cl)C(=O)O2)cc1
MIC (Plasmodium falciparum [10]): 50 µg/mL (≈ 138 µM)

COC(=O)[C@H](Cc1ccc(O)c(-c2ccc(F)cc2)c1)NC(=O)C(=O)c1c[nH]c2ccccc12
Activity (Plasmodium falciparum [6]): 60%
EC50 (Plasmodium falciparum [11]): 1.3 µM

CC1(C)C2CC=C(CC(=O)Oc3ccnc4cc(Cl)ccc34)[C@@H]1C2
selectivity ratio [12]: > 976
selectivity ratio [13]: 0.7
EC50 (Plasmodium falciparum [14]): > 50 µM
EC50 (Plasmodium falciparum [15]): 0.164 µM
EC50 (Plasmodium falciparum [16]): 23.3 µM
CC50 at 72 h [17]: > 160 µM

Oc1ccccc1/N=C/c1cccc(CN2CCOCC2)c1O
IC50 (Plasmodium falciparum [9]): 2.28 µM

COC(=O)[C@H](Cc1ccc(O)c(-c2ccc(C(C)(C)C)cc2)c1)NC(=O)C(=O)c1c[nH]c2ccccc12
Activity (Plasmodium falciparum [6]): 60%

Oc1ccc(/N=C/c2cccc(CN3CCOCC3)c2O)cc1
IC50 (Plasmodium falciparum [9]): 2.28 µM

N=C(NC(=O)OCc1ccccc1)NC(=O)c1ccc(C(=O)OCc2ccccc2)o1
Ki (Falcipain 2): 2.69 µM

CC(=O)Nc1cc(-c2ccc(F)cc2)cc2c(C(=O)C(F)(F)F)c(-c3ccc(F)cc3)[nH]c12
IC50 (Plasmodium falciparum [5]): 2.52 µM

COC(=O)[C@H](Cc1ccc(O)c(-c2ccc(Cl)cc2)c1)NC(=O)C(=O)c1c[nH]c2ccccc12
Activity (Plasmodium falciparum [6]): 60%

Oc1c(/C=N/c2ccccc2/N=C/c2cccc(CN3CCOCC3)c2O)cccc1CN1CCNCC1
IC50 (Plasmodium falciparum [9]): 2.28 µM

COC(=O)[C@H](Cc1ccc(O)c(-c2ccccc2)c1)NC(=O)C(=O)c1c[nH]c2ccccc12
Activity (Plasmodium falciparum [6]): 60%

COC(=O)[C@H](Cc1ccc(O)c(-c2ccsc2)c1)NC(=O)C(=O)c1c[nH]c2ccccc12
Activity (Plasmodium falciparum [6]): 60%

Cc1ccc(C2=C/C(=C/c3cc4cc(C)ccc4nc3Cl)C(=O)O2)c(C)c1
MIC (Plasmodium falciparum [10]): 10 µg/mL (≈ 26.6 µM)

Nc1cc(Cl)c(S(N)(=O)=O)cc1-c1nnc(S)n1-c1ccccc1Cl
IC50 (Plasmodium falciparum [18]): 0.025 µg/mL (≈ 0.0601 µM)

COC(=O)[C@H](Cc1ccc(O)c(-c2cccc(O)c2)c1)NC(=O)C(=O)c1c[nH]c2ccccc12
Activity (Plasmodium falciparum [6]): 60%

COC(=O)[C@H](Cc1ccc(O)c(-c2ccc(C(C)=O)cc2)c1)NC(=O)C(=O)c1c[nH]c2ccccc12
Activity (Plasmodium falciparum [6]): 60%

O=C(Nc1ccc([C@@H]2[C@H](Oc3ccc(Cl)cc3Cl)C(=O)N2c2ccc(Cl)cc2)cc1)N1CCOCC1
IC50 (Plasmodium falciparum [7]): 26 µM

C/C1=C\[C@H](C)CCC(=O)/C(C)=C/[C@H](C)C[C@@H](C)CC[C@@H]([C@@H](C)C(=O)O)OC(=O)[C@@H](C)C1
IC50 (Plasmodium falciparum [19]): 9.81 µM

CC1(C)C2CC=C(CC(=O)Nc3ccnc4cc(Cl)ccc34)[C@@H]1C2
selectivity ratio [12]: 1.8
selectivity ratio [13]: 0.7
selectivity ratio [20]: 0.8
EC50 (Plasmodium falciparum [14]): 17.1 µM
EC50 (Plasmodium falciparum [15]): 7.84 µM
EC50 (Plasmodium falciparum [16]): 21.4 µM
CC50 at 72 h [17]: 14.3 µM

CCN(Cc1cc(C2(C)OOC(c3ccccn3)OO2)ccc1O)c1ccccc1 (centres undefined)
IC50 (Plasmodium falciparum [8]): 5.3 µg/mL (≈ 13 µM)

CC1(C)C2CC=C(CC(=O)Nc3ccnc4ccccc34)[C@@H]1C2
selectivity ratio [12]: 0.3
selectivity ratio [13]: 0.2
selectivity ratio [20]: 0.2
EC50 (Plasmodium falciparum [14]): 26.4 µM
EC50 (Plasmodium falciparum [15]): 13.9 µM
EC50 (Plasmodium falciparum [16]): 23.4 µM
CC50 at 72 h [17]: 3.98 µM

COC(=O)[C@H](Cc1ccc(O)c(C(=O)OCc2ccc(Nc3ccccc3)cc2)c1)NC(=O)C(=O)c1c[nH]c2ccccc12
Activity (Plasmodium falciparum [6]): 60%

Oc1c(/C=N/c2ccc(Oc3ccc(/N=C/c4cccc(CN5CCOCC5)c4O)cc3)cc2)cccc1CN1CCOCC1
IC50 (Plasmodium falciparum [9]): 2.28 µM

COC(=O)[C@H](Cc1ccc(O)c(-c2ccc(Br)cc2)c1)NC(=O)C(=O)c1c[nH]c2ccccc12
Activity (Plasmodium falciparum [6]): 60%
EC50 (Plasmodium falciparum [11]): 3.7 µM

CCN(Cc1cc(C2(C)OOC(c3ccco3)OO2)ccc1O)c1ccccc1 (centres undefined)
IC50 (Plasmodium falciparum [8]): 5.3 µg/mL (≈ 13.3 µM)

CC(=O)Nc1cc(-c2ccc(F)cc2)cc2cc(-c3ccc(F)cc3)[nH]c12
IC50 (Plasmodium falciparum [5]): 1.43 µM

COc1ccc(-c2[nH]c3c(NC(C)=O)cc(/C=C/c4ccc(F)cc4)cc3c2C(=O)C(F)(F)F)cc1
IC50 (Plasmodium falciparum [5]): 3.39 µM

COc1ccc2nc(Cl)c(/C=C3/C=C(c4ccc(C)cc4C)OC3=O)cc2c1
MIC (Plasmodium falciparum [10]): 10 µg/mL (≈ 25.5 µM)

C/C1=C\[C@H](C)C(=O)C[C@@H](O)/C(C)=C/[C@H](C)C[C@@H](C)CC[C@@H]([C@@H](C)C(=O)O)OC(=O)[C@@H](C)C1
IC50 (Plasmodium falciparum [19]): 0.123 µM

CC1(C)C2CC=C(CC(=O)Nc3cccc4cccnc34)[C@@H]1C2
selectivity ratio [20]: > 62.3
EC50 (Plasmodium falciparum [14]): 2.19 µM
EC50 (Plasmodium falciparum [15]): > 50 µM
EC50 (Plasmodium falciparum [16]): > 50 µM
CC50 at 72 h [17]: > 100 µM

C=C[C@H]1CN2CC[C@H]1C[C@H]2[C@H](O)c1ccnc2ccc(OC)cc12 [QUININE]
IC50 (Plasmodium falciparum [18]): 0.026 µg/mL (≈ 0.0801 µM)
